From patent US6812212B2, “Assessment of oxidant stress in vitro and in vivo” (priority 2000, dated 2004)

Legend:
[1] = biological target: T1, prostaglandin H2 synthase form 2 (Ovis aries, UniProt P79208); assay: Peroxynitrite-induced dimerization of prostaglandin H2 synthase form 2, SDS-PAGE without β-mercaptoethanol and Western blot; format: biochemical, sheep; conditions: 450 μM peroxynitrite
T1 construct: Prostaglandin H2 synthase form 2, isolated from sheep placenta, contained nitrated tyrosine residues; purchased Cayman Co. (Ann Arbor, Mich.); host or cells: sheep placenta (tissue-purified)
T1 sequence (P79208 17-603): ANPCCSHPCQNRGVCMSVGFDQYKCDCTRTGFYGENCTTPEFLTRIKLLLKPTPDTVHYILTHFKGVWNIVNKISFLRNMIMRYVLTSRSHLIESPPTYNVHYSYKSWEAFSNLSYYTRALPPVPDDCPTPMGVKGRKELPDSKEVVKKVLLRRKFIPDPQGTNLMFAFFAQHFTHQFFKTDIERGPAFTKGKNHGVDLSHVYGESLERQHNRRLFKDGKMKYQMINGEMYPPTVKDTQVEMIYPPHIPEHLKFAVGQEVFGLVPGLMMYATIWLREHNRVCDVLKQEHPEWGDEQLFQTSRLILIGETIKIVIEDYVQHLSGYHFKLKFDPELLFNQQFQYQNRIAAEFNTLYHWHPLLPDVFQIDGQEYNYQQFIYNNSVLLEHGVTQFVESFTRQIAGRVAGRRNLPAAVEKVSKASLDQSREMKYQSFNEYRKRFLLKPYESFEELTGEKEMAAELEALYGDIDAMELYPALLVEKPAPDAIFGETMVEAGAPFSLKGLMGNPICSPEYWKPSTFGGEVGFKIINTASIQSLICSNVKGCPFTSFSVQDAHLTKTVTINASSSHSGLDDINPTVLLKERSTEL
Procedure: (§1) SDS-PAGE was carried out on 10% or 15% gels, according to Laemmli (18), with or without the addition of β-mercaptoethanol in gel loading buffer before heat denaturization of proteins. The separated proteins were electroblotted onto a […] membrane and Western blot analyses were carried out using alkaline phosphatase system as previously described (19,20). Visualization of bands was accomplished by incubation with a mixture of 5-bromo-4-chloro-3-indolylphosphatate p-toluidine and nitrobluetetrazolium. Western blot analyses were also carried out using horseradish peroxidase or alkaline phosphatase system with […] substrates.

[2] = biological target: T1, prostaglandin H2 synthase form 2; assay: Prostaglandin H2 synthase activity analysis by TLC ([14C]arachidonic acid conversion); format: biochemical, sheep; conditions: pretreated at 37° C. for 30 minutes; 25 μM [14C]arachidonic acid
Procedure: (§2) Prostaglandin H2 synthase activity analysis of sheep prostaglandin H2 synthases form 1 and 2 obtained from ram seminal vesicle and placenta, respectively, were carried out as previously described (21) with or without pretreatment with peroxynitrite. Briefly, purified or partly purified sheep prostaglandin H2 synthases form 1 (9 units) and form 2 (12 units) were pretreated with or without peroxynitrite at 37° C. for 30 minutes. [^14C]arachidonic acid (AA) (25 μM) (NEN, specific activity 53 mCi/mmol) was added to the prostaglandin H2 synthase form 1 or form 2 in 0.2 ml of PBS, and incubated at 37° C. for 10 minutes. Prostaglandin H2 synthase metabolites in the medium were extracted with ethyl acetate, dried down in a centrifugal evaporator, spotted on a silica TLC plate and separated using A-9 solvent (ethyl acetate:trimethylpentane:acetic acid:water, 55:25:10:50). The TLC assay measured products resulting from both the cyclooxygenase and peroxidase activities of prostaglandin H2 synthase. The immediate product of the prostaglandin H2 synthase reaction, prostaglandin H2, was unstable and broke down in a non-enzymatic fashion to a variety of prostaglandins which were detectable by TLC. The Rf pattern in the A-9 solvent system of the break down products of prostaglandin H2 produced by ram seminal vesicle prostaglandin H2 synthase form 1 was well characterized. […]

[3] = biological target: T2, prostaglandin H2 synthase form 1 (Ovis aries, UniProt P05979); assay: as above; format: biochemical, sheep; conditions: pretreated at 37° C. for 30 minutes; 25 μM [14C]arachidonic acid
T2 construct: sheep prostaglandin H2 synthases form 1 and 2 obtained from ram seminal vesicle and placenta, respectively; purchased Cayman Co. (Ann Arbor, Mich.); host or cells: ram seminal vesicle (tissue-purified)
T2 sequence (P05979 25-600): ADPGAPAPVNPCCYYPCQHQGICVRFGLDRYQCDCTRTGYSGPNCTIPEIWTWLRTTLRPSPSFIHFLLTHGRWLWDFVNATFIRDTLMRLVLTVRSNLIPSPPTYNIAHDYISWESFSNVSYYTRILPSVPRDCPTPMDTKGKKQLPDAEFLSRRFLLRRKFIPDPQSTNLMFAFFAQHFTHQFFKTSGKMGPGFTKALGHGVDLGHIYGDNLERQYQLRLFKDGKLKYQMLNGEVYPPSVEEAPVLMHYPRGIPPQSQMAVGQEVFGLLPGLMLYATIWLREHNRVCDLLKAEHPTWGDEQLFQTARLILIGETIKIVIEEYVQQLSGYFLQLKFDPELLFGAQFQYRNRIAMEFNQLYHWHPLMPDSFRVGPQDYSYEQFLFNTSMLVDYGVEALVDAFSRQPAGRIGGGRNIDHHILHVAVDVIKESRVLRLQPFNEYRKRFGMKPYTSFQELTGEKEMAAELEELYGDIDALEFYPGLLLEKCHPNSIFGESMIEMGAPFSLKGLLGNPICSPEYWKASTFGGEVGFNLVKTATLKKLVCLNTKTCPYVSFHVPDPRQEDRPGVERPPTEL
Procedure: as §2

[4] = biological target: T1, prostaglandin H2 synthase form 2; assay: Peroxynitrite-induced nitration of prostaglandin H2 synthase form 2, Western blot with anti-nitrotyrosine antibodies; format: biochemical, sheep; conditions: for nitration of tyrosine residues of prostaglandin H2 synthase form 2 in the presence of reducing agent: 16 μg sheep PGHS-2, 450 μM peroxynitrite, 31 μM GSH
Procedure: as §1

cytochrome c [5] = assay: Nitration and polymerization of cytochrome c, SDS-PAGE and anti-nitrotyrosine Western blot; format: biochemical
Procedure: as §1
Cytochrome c (40 μg) was incubated with 0.5 mM (FIG. 1, Panel A, lane 1) […] deactivated (a negative control, FIG. 1, Panel A, lane 2) peroxynitrite in 100 mM phosphate buffer, pH 7.4. Deactivated peroxynitrite was produced by incubation of 0.5 mM peroxynitrite in buffer for 5 minutes prior to addition to the reaction mixture. […]
Cytochrome c (40 μg) was incubated with increasing concentrations (0.032 to 0.13 mM) (FIG. 1, Panel B) of peroxynitrite in 100 mM phosphate buffer, pH 7.4. […] The cytochrome c monomer band (14 kDa) shown in Western blot analysis in FIG. 1, Panel B and those obtained from two other experiments were quantitated using Molecular Dynamics Personal Densitometer (FIG. 1, Panel C).

cytochrome c [6] = assay: Nitration and polymerization of cytochrome c by NO donor during prostaglandin H2 synthase form 2 metabolism of arachidonic acid; format: biochemical; conditions: 300 μM DETA NONOate with ovine PGHS-2 and arachidonic acid (590 μM), 37° C., 30 minutes
Procedure: Western blot analysis was carried out with monoclonal antibodies produced against nitrotyrosine using the alkaline phosphatase system;
Reaction mixture in 100 mM phosphate buffer, pH 7.4, (total volume, 200 μl) was incubated at 37° C. for 30 minutes. The reaction mixture contained a combination of cytochrome c (40 μg), ovine prostaglandin H2 synthase form 2 (104 units), arachidonic acid (590 μM), epinephrine (31 μg), hematin (1 μM), and DETA NONOate, an NO donor, (300 μM) as indicated in FIG. 2. After incubation, the proteins were separated by SDS-PAGE followed by Western blot analysis with an alkaline phosphatase system using monoclonal antibodies produced against nitrotyrosine.

## O=NOO [peroxynitrite]
[1]; no GSH, no β-mercaptoethanol
  dimerization of prostaglandin H2 synthase form 2 by oxidant: migrated both as a monomer (70 kDa) and a dimer (140 kDa)
[2]
  catalytic activity of prostaglandin H2 synthase form 2 after treatment: abolished
[3]
  catalytic activity of prostaglandin H2 synthase form 1 after treatment: abolished
[4]; 450 μM peroxynitrite, no GSH
  nitration of tyrosine residues of prostaglandin H2 synthase form 2 by oxidant: increased
Cytochrome c [5]; 0.5 mM peroxynitrite, 100 mM phosphate buffer, pH 7.4
  nitration and polymerization of cytochrome c: nitrated and polymerized to 30 kDa, 45 kDa and higher molecular mass
Cytochrome c [5]; 0.032 to 0.13 mM peroxynitrite
  concentration dependence of nitration and polymerization of cytochrome c: nitrated and polymerized in a dose-dependent manner

## NCCN(CCN)/[N+]([O-])=N/O [DETA NONOate, diethylenetetraamine (DETA) NONOate]
Cytochrome c [6]
  nitration and polymerization of cytochrome c: nitrated and polymerized

## N[C@@H](CCC(=O)N[C@@H](CS)C(=O)NCC(=O)O)C(=O)O [glutathione]
[1]; 31 μM GSH, no β-mercaptoethanol in loading buffer
  dimerization of prostaglandin H2 synthase form 2 in the presence of reducing agent: ran as a monomer
[4]
  nitration of tyrosine residues of prostaglandin H2 synthase form 2 in the presence of reducing agent: inhibited
[4]; listed as GSH
  nitration of tyrosine residues of prostaglandin H2 synthase form 2 in the presence of reducing agent: not nitrated
